In brackets after ≈: the same amount, converted by molar mass. Read-outs that look alike come from different tables or passages of the source.
What was measured:
Sphaerotheca friliginea = assay: Effect of controlling cucumber powdery mildew, Experimental Example 4; format: in vivo; conditions: sprayed liquid 200 ppm, 10 days after inoculation
Method: 10 ml of each of test liquids diluted to a predetermined concentration was sprayed over seedlings of a cucumber plant (variety: Sagami Hanpaku) grown up to the first leaf stage which has been soil cultured in an unglazed pot with a diameter of 9 cm in a green house. After allowing to stand overnight, the seedlings were sprayed for inoculation with a spore suspension of Sphaerotheca friliginea. Ten days after the inoculation, the rate of a lesion area (%) was checked and a control value was evaluated from the following equation. The degree of chemical injury against a cucumber plant was determined in the same manner as in Experimental Example.

rice blast = conditions: Annual Report of the Takeda's Research Institute, Vol. 24, pages 250-258 (1965); cited from earlier work
Pyricularia oryzae [1] = format: in vivo, Pyricularia oryzae on rice plant (variety: Asahi); conditions: rice blast, curative treatment; sprayed liquid 200 ppm; 5 days after spraying
rice plant [2] = tested on: rice plant
Pyricularia oryzae [3] = format: in vivo, Pyricularia oryzae on rice plant (variety: Asahi); conditions: rice blast, prevention; 200 ppm; 5 days after inoculation
[4] = Annual Report of the Takeda's Research Institute, Vol. 24, pages 250-258 (1965); cited from earlier work
Cochliobolus miyabeanus [5] = assay: Effect of controlling rice brown spot, Experimental Example 3; format: in vivo, Cochliobolus miyabeanus on rice plant (variety: Asahi); conditions: sprayed liquid 500 ppm, 5 days after inoculation
rice plant [6] = conditions: blast prevention test, 200 ppm
rice plant [7] = conditions: blast curative test, 200 ppm
Pyricularia oryzae [8] = assay: microbe, parasite or virus in culture; format: cell-based; conditions: read-out: ED50 value
Alternaria padwikii = assay: Antimicrobial activity (mycelium growth inhibition, PDA medium); format: cell-based; conditions: 24° C., read-out: ED50 value
Method: (§1) Experimental Example 5 (Test for Antimicrobial Activity Against Various Plant Phathogenic Fungi)
(§2) 1 ml of an acetone solution of each of test compounds and 20 ml of the PDA medium (50° C.) to prepare media containing the chemical in different concentrations, followed by charging into a petri dish with a diameter of 9 cm where it was solidified flat. On the central portion of the chemical-containing medium was inoculated a fungus-containing medium a piece of ager black-containing mycelia which was obtained by punching by means of a cork borer the tip portion of mycelia of each test fungus which had been cultured in advance in the PDA medium, followed by cultivating at 24° C. Two to six days after the cultivation, the diameter of the mycelia was measured and mycelium growth inhibiting rate was calculated from a comparison with that of a non-treated plot. The mycelium growth inhibiting rate was plotted on a logarithmic probability paper to determine an ED50 value.

Sclerotinia sclerotiorum = assay: as above; format: cell-based; conditions: 24° C., read-out: ED50 value
Method: as §1, §2

Endothia parasitica = assay: as above; format: cell-based; conditions: Cryphonectria parasitica, 24° C., read-out: ED50 value
Method: as §1, §2

Sclerotinia fructigena = assay: as above; format: cell-based; conditions: 24° C., read-out: ED50 value
Method: as §1, §2

Diaporthe citri = assay: as above; format: cell-based; conditions: 24° C., read-out: ED50 value
Method: as §1, §2

Pellicularia sasakii = assay: as above; format: cell-based; conditions: 24° C., read-out: ED50 value
Method: as §1, §2

Glomerella cingulata = assay: as above; format: cell-based; conditions: Colletotrichum gloeosporioides, 24° C., read-out: ED50 value
Method: as §1, §2

Curvularia sp. = assay: as above; format: cell-based; conditions: 24° C., read-out: ED50 value
Method: as §1, §2

Botrytis cinerea = assay: as above; format: cell-based; conditions: 24° C., read-out: ED50 value
Method: as §1, §2

Phoma lingam = assay: as above; format: cell-based; conditions: Plenodomus lingam, 24° C., read-out: ED50 value
Method: as §1, §2

Phizoctonia solani = assay: as above; format: cell-based; conditions: 24° C., read-out: ED50 value
Method: as §1, §2

Fusarium nivale = assay: as above; format: cell-based; conditions: Microdochium nivale, 24° C., read-out: ED50 value
Method: as §1, §2

Penicillium digitatum = assay: as above; format: cell-based; conditions: 24° C., read-out: ED50 value
Method: as §1, §2

Mycosphaerella melonis = assay: as above; format: cell-based; conditions: 24° C., read-out: ED50 value
Method: as §1, §2

[9] = tested on: Helminthosporium gramineum; assay: as above; format: cell-based; conditions: 24° C., read-out: ED50 value
Method: as §1, §2

Cochliobolus miyabeanus [10] = assay: as above; format: cell-based; conditions: Bipolaris oryzae, read-out: ED50 value

Row | Structure (SMILES) | Control Value (Sphaerotheca friliginea) [%] | Control Value (Pyricularia oryzae [1]) [%] | Control Value (Pyricularia oryzae [3]) [%] | Control Value (Cochliobolus miyabeanus [5]) [%] | Degree of chemical injury (rice plant [6]) | Degree of chemical injury (rice plant [7]) | IC50 (Pyricularia oryzae [8]) [µg/mL] | IC50 (Alternaria padwikii) [µg/mL] | IC50 (Sclerotinia sclerotiorum) [µg/mL] | IC50 (Endothia parasitica) [µg/mL] | IC50 (Sclerotinia fructigena) [µg/mL] | IC50 (Diaporthe citri) [µg/mL] | IC50 (Pellicularia sasakii) [µg/mL] | IC50 (Glomerella cingulata) [µg/mL] | IC50 (Curvularia sp.) [µg/mL] | IC50 (Botrytis cinerea) [µg/mL] | IC50 (Phoma lingam) [µg/mL] | IC50 (Phizoctonia solani) [µg/mL] | IC50 (Fusarium nivale) [µg/mL] | IC50 (Penicillium digitatum) [µg/mL] | further results
1 | Cc1cc(O)nc(-n2nc(C)cc2C)n1 [Comparative Chemical 1, 2-(3,5-dimethyl-1-pyrazolyl)-4-methyl-6-hydroxypyrimidine, reference compound] | 53.2 | 70 | 75 | 75 | 5 | 5 | – | – | – | – | – | – | – | – | – | – | – | – | – | – | activity of controlling rice blast (rice blast): show an activity of controlling rice blast; Degree of chemical injury (rice plant [2]; 500 ppm): 5; Degree of chemical injury (cucumber plant; 200 ppm): 1; chemical injury [4]: violent chemical injury
2 | Cc1cc(C)n(-c2nc(O)cc(-c3ccccc3)n2)n1 [Comparative Chemical 2, 2-(3,5-dimethyl-1-pyrazolyl)-4-phenyl-6-hydroxypyrimidine, reference compound] | 48.3 | 71 | 76 | 73 | 5 | 5 | – | – | – | – | – | – | – | – | – | – | – | – | – | – | activity of controlling rice blast (rice blast): show an activity of controlling rice blast; Degree of chemical injury (rice plant [2]; 500 ppm): 5; Degree of chemical injury (cucumber plant; 200 ppm): 1; chemical injury [4]: violent chemical injury
3 | Cc1cc(SC#N)nc(-n2nc(C)cc2C)n1 [Comparative Chemical 3, 2-(3,5-dimethyl-1-pyrazolyl)-4-methyl-6-thiocyanopyrimidine] | – | – | – | – | – | – | – | – | – | – | – | – | – | – | – | – | – | – | – | – | chemical injury [4]: violent chemical injury
4 | Cc1cc(C)n(-c2ncc(C)c(Sc3ccccc3)n2)n1 [Compound 35] | 100 | 95 | 84 | 92 | 0 | 0 | 0.2 (≈ 0.675 µM) | 1 (≈ 3.37 µM) | 6.1 (≈ 20.6 µM) | 6.8 (≈ 22.9 µM) | 0.7 (≈ 2.36 µM) | 4.6 (≈ 15.5 µM) | 1.3 (≈ 4.39 µM) | 9.6 (≈ 32.4 µM) | 1.8 (≈ 6.07 µM) | 9.6 (≈ 32.4 µM) | 4.6 (≈ 15.5 µM) | 2.8 (≈ 9.45 µM) | 2.6 (≈ 8.77 µM) | 0.8 (≈ 2.7 µM) | IC50 (Mycosphaerella melonis): 2 µg/mL (≈ 6.75 µM); IC50 [9]: 6.3 µg/mL (≈ 21.3 µM); Degree of chemical injury (rice plant [2]; in vivo): 0; Degree of chemical injury (cucumber plant; in vivo): 0; IC50 (Cochliobolus miyabeanus [10]): 4.3 µg/mL (≈ 14.5 µM)
5 | Cc1cc(C)n(-c2nc(C)c(C)c(Oc3ccccc3)n2)n1 [Compound 38] | 100 | 100 | 100 | 87 | 0 | 0 | 0.04 (≈ 0.136 µM) | 1.7 (≈ 5.78 µM) | 3.6 (≈ 12.2 µM) | 6.2 (≈ 21.1 µM) | 1.6 (≈ 5.44 µM) | 3.8 (≈ 12.9 µM) | 1.2 (≈ 4.08 µM) | 7.3 (≈ 24.8 µM) | 1.5 (≈ 5.1 µM) | 8.8 (≈ 29.9 µM) | 2.7 (≈ 9.17 µM) | 2 (≈ 6.79 µM) | 2.7 (≈ 9.17 µM) | 1.4 (≈ 4.76 µM) | IC50 (Mycosphaerella melonis): 4 µg/mL (≈ 13.6 µM); IC50 [9]: 3.2 µg/mL (≈ 10.9 µM); Degree of chemical injury (rice plant [2]; in vivo): 0; Degree of chemical injury (cucumber plant; in vivo): 0; IC50 (Cochliobolus miyabeanus [10]): 2.8 µg/mL (≈ 9.51 µM)
6 | CCCCc1c(C)nc(-n2nc(C)cc2C)nc1OCC [Compound 41] | 94 | 100 | 100 | 100 | 0 | 0 | 0.01 (≈ 0.0347 µM) | 0.7 (≈ 2.43 µM) | 3.8 (≈ 13.2 µM) | 4.6 (≈ 16 µM) | 1.5 (≈ 5.2 µM) | 2 (≈ 6.93 µM) | 1.1 (≈ 3.81 µM) | 4.1 (≈ 14.2 µM) | 1.6 (≈ 5.55 µM) | 4.5 (≈ 15.6 µM) | 2.6 (≈ 9.02 µM) | 1.4 (≈ 4.85 µM) | 0.2 (≈ 0.693 µM) | 1.1 (≈ 3.81 µM) | IC50 (Mycosphaerella melonis): 0.7 µg/mL (≈ 2.43 µM); IC50 [9]: 2.8 µg/mL (≈ 9.71 µM); Degree of chemical injury (rice plant [2]; in vivo): 0; Degree of chemical injury (cucumber plant; in vivo): 0; IC50 (Cochliobolus miyabeanus [10]): 1.4 µg/mL (≈ 4.85 µM)
7 | CCCCc1c(C)nc(-n2nc(C)cc2C)nc1SCC [Compound 42] | 92 | 100 | 100 | 100 | 0 | 0 | 0.02 (≈ 0.0657 µM) | 0.7 (≈ 2.3 µM) | 5.2 (≈ 17.1 µM) | 3.8 (≈ 12.5 µM) | 2.1 (≈ 6.9 µM) | 2.7 (≈ 8.87 µM) | 2 (≈ 6.57 µM) | 4 (≈ 13.1 µM) | 1.4 (≈ 4.6 µM) | 3.7 (≈ 12.2 µM) | 3.2 (≈ 10.5 µM) | 1.3 (≈ 4.27 µM) | 2 (≈ 6.57 µM) | 2 (≈ 6.57 µM) | IC50 (Mycosphaerella melonis): 0.9 µg/mL (≈ 2.96 µM); IC50 [9]: 5.2 µg/mL (≈ 17.1 µM); Degree of chemical injury (rice plant [2]; in vivo): 0; Degree of chemical injury (cucumber plant; in vivo): 0; IC50 (Cochliobolus miyabeanus [10]): 1.8 µg/mL (≈ 5.91 µM)
